Assay results from BigSolDB 2.1.

CCOc1cccc(C=O)c1O
solubility (mole fraction)
Settings	278.15 K	283.15 K	288.15 K	293.15 K	298.15 K	303.15 K	308.15 K	313.15 K
in acetone	0.155	0.217	0.272	0.325	0.384	0.446	0.523	0.605
in acetonitrile	0.104	0.154	0.206	0.254	0.303	0.352	0.415	0.498
in ethanol	0.0153	0.0195	0.0287	0.0433	0.0662	0.102	0.145	0.214
in ethyl acetate	0.134	0.174	0.209	0.25	0.294	0.344	0.403	0.497
in isopropanol	0.0095	0.0143	0.0197	0.0284	0.0437	0.0642	0.0925	0.151
in methanol	0.0196	0.0355	0.0567	0.0786	0.132	0.211	0.304	0.434
in methyl acetate	0.137	0.185	0.227	0.281	0.335	0.388	0.475	0.563
in n-butanol	0.0163	0.0206	0.0287	0.0398	0.0566	0.0795	0.116	0.164
in n-butyl acetate	0.0985	0.125	0.158	0.188	0.237	0.281	0.334	0.409
in n-propanol	0.0145	0.0198	0.0262	0.0395	0.0576	0.0824	0.124	0.176
in n-propyl acetate	0.105	0.136	0.164	0.205	0.248	0.312	0.374	0.464
in water	5.24e-05	6.55e-05	7.32e-05	8.68e-05	0.000106	0.000125	0.000155	0.000191
